From the NIST ThermoML archive (doi:10.1016/j.fluid.2017.06.022)
± gives the expanded uncertainty stated by the source.

Assay: xn = mol fraction of the nth substance listed
Settings: Liquid, Bellows volumetry

C=CC [propene] + Cc1ccccc1
Settings | mass density [kg/m3]
295.7 K, 700 kPa, x1 = 0.53 | 679.7 ± 16
295.7 K, 1000 kPa, x1 = 0.53 | 680.5 ± 16
295.7 K, 1400 kPa, x1 = 0.53 | 681.2 ± 16
295.7 K, 1900 kPa, x1 = 0.53 | 681.6 ± 16
295.7 K, 2300 kPa, x1 = 0.53 | 682.4 ± 16
295.7 K, 2900 kPa, x1 = 0.53 | 683.2 ± 16
295.7 K, 3400 kPa, x1 = 0.53 | 684 ± 16
295.7 K, 3600 kPa, x1 = 0.53 | 684 ± 16
295.7 K, 5200 kPa, x1 = 0.53 | 685.5 ± 16
295.7 K, 7300 kPa, x1 = 0.53 | 688.3 ± 16
295.7 K, 8600 kPa, x1 = 0.53 | 689.5 ± 17
295.7 K, 10700 kPa, x1 = 0.53 | 691.9 ± 17
295.7 K, 13500 kPa, x1 = 0.53 | 694.7 ± 17
295.7 K, 23900 kPa, x1 = 0.53 | 704.6 ± 17
295.7 K, 31000 kPa, x1 = 0.53 | 710.9 ± 17
295.7 K, 37900 kPa, x1 = 0.53 | 716 ± 17
295.7 K, 44100 kPa, x1 = 0.53 | 720.7 ± 17
295.7 K, 51800 kPa, x1 = 0.53 | 726.4 ± 17
295.7 K, 58300 kPa, x1 = 0.53 | 730.4 ± 18
295.7 K, 63200 kPa, x1 = 0.53 | 733.6 ± 18
295.7 K, 67000 kPa, x1 = 0.53 | 735.9 ± 18
295.9 K, 200 kPa, x1 = 0.1159 | 797.6 ± 19
295.9 K, 300 kPa, x1 = 0.1159 | 798.9 ± 19
295.9 K, 600 kPa, x1 = 0.1159 | 799.5 ± 19
295.9 K, 1300 kPa, x1 = 0.1159 | 800.1 ± 19
295.9 K, 2000 kPa, x1 = 0.1159 | 800.7 ± 19
295.9 K, 3500 kPa, x1 = 0.1159 | 802 ± 19
295.9 K, 7200 kPa, x1 = 0.1159 | 805.2 ± 19
295.9 K, 10200 kPa, x1 = 0.1159 | 807.7 ± 19
295.9 K, 13500 kPa, x1 = 0.1159 | 810.3 ± 20
296.4 K, 1000 kPa, x1 = 0.7612 | 606.8 ± 15
296.4 K, 1400 kPa, x1 = 0.7612 | 610 ± 15
296.4 K, 2200 kPa, x1 = 0.7612 | 611.2 ± 15
296.4 K, 3300 kPa, x1 = 0.7612 | 613.2 ± 15
296.4 K, 5200 kPa, x1 = 0.7612 | 616.4 ± 15
296.4 K, 6900 kPa, x1 = 0.7612 | 619.3 ± 15
296.4 K, 10300 kPa, x1 = 0.7612 | 624.6 ± 15
296.4 K, 10400 kPa, x1 = 0.7612 | 624.6 ± 15
296.4 K, 13800 kPa, x1 = 0.7612 | 629.7 ± 15
296.4 K, 17200 kPa, x1 = 0.7612 | 634.4 ± 15
296.4 K, 24100 kPa, x1 = 0.7612 | 643.5 ± 16
296.4 K, 31100 kPa, x1 = 0.7612 | 652.1 ± 16
296.4 K, 37700 kPa, x1 = 0.7612 | 659.4 ± 16
296.4 K, 44500 kPa, x1 = 0.7612 | 666 ± 16
296.4 K, 51400 kPa, x1 = 0.7612 | 672.7 ± 16
296.4 K, 57800 kPa, x1 = 0.7612 | 678 ± 16
296.4 K, 62900 kPa, x1 = 0.7612 | 682 ± 16
296.4 K, 66900 kPa, x1 = 0.7612 | 685 ± 16
324.6 K, 1700 kPa, x1 = 0.7612 | 572 ± 14
324.6 K, 1900 kPa, x1 = 0.7612 | 572.3 ± 14
324.6 K, 2600 kPa, x1 = 0.7612 | 574.4 ± 14
324.6 K, 3600 kPa, x1 = 0.7612 | 576.9 ± 14
324.6 K, 5300 kPa, x1 = 0.7612 | 580.5 ± 14
324.6 K, 7000 kPa, x1 = 0.7612 | 584.1 ± 14
324.6 K, 10500 kPa, x1 = 0.7612 | 591.1 ± 14
324.6 K, 17400 kPa, x1 = 0.7612 | 603.7 ± 14
324.6 K, 24200 kPa, x1 = 0.7612 | 614.4 ± 15
324.6 K, 30900 kPa, x1 = 0.7612 | 623.8 ± 15
324.6 K, 37800 kPa, x1 = 0.7612 | 632.7 ± 15
324.6 K, 44500 kPa, x1 = 0.7612 | 640.5 ± 15
324.6 K, 51500 kPa, x1 = 0.7612 | 648.4 ± 16
324.6 K, 58400 kPa, x1 = 0.7612 | 655.7 ± 16
324.6 K, 63100 kPa, x1 = 0.7612 | 660.3 ± 16
324.6 K, 67000 kPa, x1 = 0.7612 | 664.1 ± 16
324.8 K, 300 kPa, x1 = 0.1159 | 771 ± 18
324.8 K, 600 kPa, x1 = 0.1159 | 771.6 ± 18
324.8 K, 1100 kPa, x1 = 0.1159 | 772.2 ± 18
324.8 K, 1600 kPa, x1 = 0.1159 | 772.8 ± 19
324.8 K, 2000 kPa, x1 = 0.1159 | 773.4 ± 19
324.8 K, 2500 kPa, x1 = 0.1159 | 774 ± 19
324.8 K, 3300 kPa, x1 = 0.1159 | 774.6 ± 19
324.8 K, 5000 kPa, x1 = 0.1159 | 776.3 ± 19
324.8 K, 7000 kPa, x1 = 0.1159 | 778.7 ± 19
324.8 K, 10200 kPa, x1 = 0.1159 | 781.7 ± 19
324.8 K, 13500 kPa, x1 = 0.1159 | 784.7 ± 19
324.8 K, 16900 kPa, x1 = 0.1159 | 787.7 ± 19
324.8 K, 20400 kPa, x1 = 0.1159 | 791.4 ± 19
324.8 K, 23600 kPa, x1 = 0.1159 | 793.9 ± 19
324.8 K, 31300 kPa, x1 = 0.1159 | 800.7 ± 19
324.8 K, 37800 kPa, x1 = 0.1159 | 805.8 ± 19
374.3 K, 3700 kPa, x1 = 0.7612 | 493.5 ± 12
374.3 K, 3800 kPa, x1 = 0.7612 | 494.1 ± 12
374.3 K, 5300 kPa, x1 = 0.7612 | 503.1 ± 12
374.3 K, 6900 kPa, x1 = 0.7612 | 511.6 ± 12
374.3 K, 8400 kPa, x1 = 0.7612 | 518.3 ± 12
374.3 K, 10400 kPa, x1 = 0.7612 | 526 ± 13
374.3 K, 17200 kPa, x1 = 0.7612 | 547.4 ± 13
374.3 K, 23900 kPa, x1 = 0.7612 | 562.2 ± 14
374.3 K, 30800 kPa, x1 = 0.7612 | 574.7 ± 14
374.3 K, 37700 kPa, x1 = 0.7612 | 586.8 ± 14
374.3 K, 44200 kPa, x1 = 0.7612 | 596.6 ± 14
375.3 K, 700 kPa, x1 = 0.1159 | 723.9 ± 17
375.3 K, 900 kPa, x1 = 0.1159 | 724.4 ± 17
375.3 K, 1400 kPa, x1 = 0.1159 | 725.5 ± 17
375.3 K, 2000 kPa, x1 = 0.1159 | 726.5 ± 18
375.3 K, 2500 kPa, x1 = 0.1159 | 727.6 ± 18
375.3 K, 3400 kPa, x1 = 0.1159 | 728.6 ± 18
375.3 K, 5200 kPa, x1 = 0.1159 | 731.2 ± 18
375.3 K, 6900 kPa, x1 = 0.1159 | 733.8 ± 18
375.3 K, 10100 kPa, x1 = 0.1159 | 737.6 ± 18
375.3 K, 17200 kPa, x1 = 0.1159 | 746.2 ± 18
375.3 K, 23700 kPa, x1 = 0.1159 | 753.4 ± 18
375.3 K, 30800 kPa, x1 = 0.1159 | 760.7 ± 18
375.3 K, 37600 kPa, x1 = 0.1159 | 767 ± 18
375.4 K, 2600 kPa, x1 = 0.53 | 588.6 ± 14
375.4 K, 2900 kPa, x1 = 0.53 | 589.8 ± 14
375.4 K, 4300 kPa, x1 = 0.53 | 593.6 ± 14
375.4 K, 6900 kPa, x1 = 0.53 | 600.6 ± 14
375.4 K, 9200 kPa, x1 = 0.53 | 607.4 ± 15
375.4 K, 10500 kPa, x1 = 0.53 | 609.9 ± 15
375.4 K, 17900 kPa, x1 = 0.53 | 622.3 ± 15
375.4 K, 23800 kPa, x1 = 0.53 | 632 ± 15
375.4 K, 24100 kPa, x1 = 0.53 | 631.5 ± 15
375.4 K, 30900 kPa, x1 = 0.53 | 641.7 ± 15
375.4 K, 37900 kPa, x1 = 0.53 | 651.5 ± 16
375.4 K, 44800 kPa, x1 = 0.53 | 659.4 ± 16
375.4 K, 51200 kPa, x1 = 0.53 | 666.4 ± 16
375.4 K, 58800 kPa, x1 = 0.53 | 674.3 ± 16
375.4 K, 63200 kPa, x1 = 0.53 | 678.1 ± 16
375.4 K, 67400 kPa, x1 = 0.53 | 682 ± 16
